This is an account of results in article PMC8312697, “Mechanistic Investigations Support Liver Safety of Ubrogepant” (Toxicological Sciences, 2020).

As usually defined, the Ki is the equilibrium dissociation constant of an inhibitor or competing ligand from its target. Read a high Ki as weaker binding. One may read the IC50 as the concentration that inhibits the measured activity by half.

One series has as its target T1, BSEP (Homo sapiens, UniProt O95342).
T1 construct: Solvo Biotechnology (Szeged, Hungary), contract laboratory that ran the assay
The series can be described thus: BSEP vesicular transport inhibition assay. It counts as biochemical. Particulars: for Vmax of taurocholate: BSEP vesicle assay; for alpha (mixed inhibition model): BSEP; for BSEP inhibition type: from Km and Vmax changes / model fit; for inhibition of BSEP-mediated probe substrate transport: vesicular transport inhibition assay. On the procedure:
These assays were conducted by Solvo Biotechnology and overseen by DSSI.
(§1) To assess the functional impact of ubrogepant on the human ABC efflux transporters BSEP, MRP3, and MRP4, in vitro vesicular transport inhibition assays were conducted by Solvo Biotechnology (Szeged, Hungary). The ability of ubrogepant to inhibit the BSEP-mediated transport (and accumulation) of a probe substrate was tested at concentrations ranging from 0.04 – 30 μM, where the latter defined the upper limit of compound solubility in the BSEP assay buffer. For the MRP3 and MRP4 vesicle-based transporter assessments, ubrogepant concentrations of 0.1 to 70 μM were used. To assess the functional impact of ubrogepant on the human SLC (uptake) transporter NTCP, in vitro experiments were performed using HEK293 cells stably expressing NTCP. The ability of ubrogepant to inhibit NTCP-mediated uptake (and accumulation) of taurocholate was tested at concentrations ranging from 0.04 – 30 μM.
In the current project, additional assays were conducted to determine the Ki value and inhibition type for ubrogepant for BSEP-mediated bile acid transport. These assays were conducted by Solvo Biotechnology and overseen by DSSI. Briefly, BSEP inhibition studies were performed with multiple substrate concentrations (0.39 – 50 µM taurocholate) and multiple inhibitor concentrations (0.5 – 30 µM ubrogepant). Ki and inhibition type for ubrogepant were determined by fitting a mixed inhibition model to the untransformed data by nonlinear regression analysis. It was assumed that inhibition type for ubrogepant for other transporters (i.e., MRP3 and MRP4) was mixed with α= 5; this is a typical value for bile acid transporter inhibitors in the experience of the DSS team.
(§2) To assess the functional impact of MK-3207 on the human ABC efflux transporters BSEP, MRP3 and MRP4, in vitro vesicular transport inhibition assays were conducted by Solvo Biotechnology (Szeged, Hungary) and overseen by DSSI. BSEP transport was assessed in the presence of 0.5-30 µM MK-3207; MRP3 and MRP4 transport was assessed in the presence of 0.11-80 µM MK-3207. The upper limits of these ranges were determined by compound solubility in each assay buffer. NTCP transporter inhibition was assessed in NTCP-expressing HEK293 cells in the presence of 0.03 – 25 µM MK-3207.
In these experiments, taurocholic acid (TCA) transport was assessed at a range of MK-3207 concentrations (0.04 – 30 µM) as well as at a range of TCA media concentrations (0.39 – 50 µM). A Ki was then determined by fitting a mixed inhibition model to the inhibition data by nonlinear regression analysis.

The target of a further series is T2, MRP4 (Homo sapiens, UniProt O15439).
T2 construct: Solvo Biotechnology (Szeged, Hungary), contract laboratory that ran the assay
T2 sequence (O15439 1-1325): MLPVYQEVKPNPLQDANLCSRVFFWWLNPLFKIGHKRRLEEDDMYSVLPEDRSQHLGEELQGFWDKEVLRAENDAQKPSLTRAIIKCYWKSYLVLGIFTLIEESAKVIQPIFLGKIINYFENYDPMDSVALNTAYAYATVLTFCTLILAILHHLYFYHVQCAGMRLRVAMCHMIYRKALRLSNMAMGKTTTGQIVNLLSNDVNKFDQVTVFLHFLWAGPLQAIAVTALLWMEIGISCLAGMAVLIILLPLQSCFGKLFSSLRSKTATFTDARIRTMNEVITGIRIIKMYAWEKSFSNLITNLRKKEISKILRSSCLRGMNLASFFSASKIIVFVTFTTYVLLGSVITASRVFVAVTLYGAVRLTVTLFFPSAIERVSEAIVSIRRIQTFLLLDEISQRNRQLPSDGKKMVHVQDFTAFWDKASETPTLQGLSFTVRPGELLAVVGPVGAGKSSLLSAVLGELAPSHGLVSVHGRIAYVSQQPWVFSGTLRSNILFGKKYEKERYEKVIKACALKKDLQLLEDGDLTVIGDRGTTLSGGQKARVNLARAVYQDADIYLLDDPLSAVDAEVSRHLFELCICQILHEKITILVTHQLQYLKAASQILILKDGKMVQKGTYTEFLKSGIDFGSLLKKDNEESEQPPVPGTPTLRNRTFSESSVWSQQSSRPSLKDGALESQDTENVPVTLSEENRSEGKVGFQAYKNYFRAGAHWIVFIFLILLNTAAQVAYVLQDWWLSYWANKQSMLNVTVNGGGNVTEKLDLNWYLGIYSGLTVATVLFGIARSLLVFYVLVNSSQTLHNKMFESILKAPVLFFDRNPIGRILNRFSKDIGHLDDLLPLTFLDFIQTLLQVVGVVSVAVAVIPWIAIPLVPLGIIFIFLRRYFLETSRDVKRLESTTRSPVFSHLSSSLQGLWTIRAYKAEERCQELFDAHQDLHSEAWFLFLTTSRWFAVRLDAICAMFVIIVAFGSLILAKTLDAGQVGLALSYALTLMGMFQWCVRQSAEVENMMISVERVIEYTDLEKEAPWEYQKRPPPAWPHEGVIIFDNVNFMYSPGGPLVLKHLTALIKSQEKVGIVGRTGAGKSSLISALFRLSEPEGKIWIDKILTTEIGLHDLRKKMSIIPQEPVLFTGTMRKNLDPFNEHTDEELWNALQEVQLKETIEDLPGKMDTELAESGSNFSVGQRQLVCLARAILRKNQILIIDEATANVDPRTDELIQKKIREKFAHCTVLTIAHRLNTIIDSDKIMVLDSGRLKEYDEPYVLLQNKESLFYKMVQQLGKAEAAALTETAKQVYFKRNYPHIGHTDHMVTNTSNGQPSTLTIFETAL
Kind of series: MRP4 vesicular transport inhibition assay. It counts as biochemical. Particulars: for inhibition of MRP4-mediated probe substrate transport: vesicular transport inhibition assay. On the procedure:
as §1, §2
IC50 values for MK-3207 were calculated for each of the transporters; these values were used as inputs into DILIsym. It was assumed that inhibition type for MK-3207 for MRP3 and MRP4 was mixed with α= 5; this is a typical value for bile acid transporter inhibitors in the experience of the DSS team.

Setting [1] is: mixed inhibition model, nonlinear regression.

T1 sequence (O95342 whole entry): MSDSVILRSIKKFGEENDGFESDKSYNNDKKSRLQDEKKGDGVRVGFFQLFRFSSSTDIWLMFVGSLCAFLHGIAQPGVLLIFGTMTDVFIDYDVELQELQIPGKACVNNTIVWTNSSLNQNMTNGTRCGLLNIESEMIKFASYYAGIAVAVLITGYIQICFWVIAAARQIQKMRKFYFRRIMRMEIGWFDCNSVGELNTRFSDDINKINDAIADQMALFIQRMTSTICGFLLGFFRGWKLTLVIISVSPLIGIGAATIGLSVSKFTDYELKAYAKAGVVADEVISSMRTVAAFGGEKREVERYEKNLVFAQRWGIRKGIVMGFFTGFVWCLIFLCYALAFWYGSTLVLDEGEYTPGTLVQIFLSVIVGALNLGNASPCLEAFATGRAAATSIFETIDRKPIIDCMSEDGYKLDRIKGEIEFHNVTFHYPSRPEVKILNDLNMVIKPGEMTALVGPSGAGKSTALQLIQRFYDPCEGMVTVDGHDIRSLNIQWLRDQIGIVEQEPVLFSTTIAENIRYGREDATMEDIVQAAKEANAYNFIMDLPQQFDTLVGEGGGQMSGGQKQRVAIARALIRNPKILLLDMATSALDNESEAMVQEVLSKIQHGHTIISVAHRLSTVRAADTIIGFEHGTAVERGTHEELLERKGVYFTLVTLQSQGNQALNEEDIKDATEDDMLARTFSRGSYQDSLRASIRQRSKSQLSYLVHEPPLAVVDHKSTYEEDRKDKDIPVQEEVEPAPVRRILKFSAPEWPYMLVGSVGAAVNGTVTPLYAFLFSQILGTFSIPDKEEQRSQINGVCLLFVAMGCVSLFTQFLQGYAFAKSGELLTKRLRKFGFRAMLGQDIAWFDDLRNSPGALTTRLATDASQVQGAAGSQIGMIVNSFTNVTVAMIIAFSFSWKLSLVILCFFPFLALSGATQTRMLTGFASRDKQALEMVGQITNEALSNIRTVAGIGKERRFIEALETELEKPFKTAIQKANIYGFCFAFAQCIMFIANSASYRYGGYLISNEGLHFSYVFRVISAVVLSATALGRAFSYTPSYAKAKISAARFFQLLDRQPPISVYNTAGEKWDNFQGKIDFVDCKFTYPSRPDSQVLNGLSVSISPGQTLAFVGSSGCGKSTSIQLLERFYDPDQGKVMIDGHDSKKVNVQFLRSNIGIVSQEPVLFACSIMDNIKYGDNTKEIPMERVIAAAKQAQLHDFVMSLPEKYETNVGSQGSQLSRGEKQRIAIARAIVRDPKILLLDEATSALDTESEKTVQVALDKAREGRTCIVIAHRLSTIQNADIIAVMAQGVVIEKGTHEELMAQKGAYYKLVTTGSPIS

Turning to `O=C(N[C@@H]1CC[C@@H](c2cccc(F)c2F)CN(CC(F)(F)F)C1=O)N1CCC(n2c(=O)[nH]c3ncccc32)CC1` [Telcagepant], the Vmax of taurocholate on BSEP (inhibitor 2.5 µM) turned out to be 186.3 pmol/mg protein/min; on BSEP (inhibitor 5 µM), 208.1 pmol/mg protein/min; at BSEP (inhibitor 10 µM), 77.52 pmol/mg protein/min; on BSEP (inhibitor 20 µM), 119.7 pmol/mg protein/min. Moreover, the “alpha (mixed inhibition model)” value at BSEP (mixed inhibition model) turned out to be 4.6. In addition, the BSEP inhibition type result at BSEP is listed as “likely to be a mixed BSEP inhibitor”. The inhibition constant (Ki) on BSEP (setting [1]) was determined as 7.9 µM. Further, the “inhibition of BSEP-mediated probe substrate transport” value on BSEP is “inhibited”. Moreover, the IC50 on BSEP (vesicular transport, taurocholate, read-out: BSEP estimated IC50) is 10.2 µM; at MRP4 (curve fitting assuming maximum inhibition at higher concentrations is 100%, read-out: MRP4 estimated lowest possible IC50) it was ≥ 16.9 µM. Moreover, the BSEP inhibition at BSEP (vesicular transport, up to 20 µM) is on record as > 50%. For the same compound, the inhibition at 20 µM on MRP4 (human, membrane vesicles with MRP4 (vesicular transport assay), read-out: maximum inhibition at the highest concentration tested, MRP4) is < 50%. The “inhibition of MRP4-mediated probe substrate transport” value at MRP4 is listed as “inhibited”.
In the case of `C[C@@H]1[C@H](c2ccccc2)C[C@H](NC(=O)c2cnc3c(c2)C[C@@]2(C3)C(=O)Nc3ncccc32)C(=O)N1CC(F)(F)F` [Ubrogepant], the Vmax of taurocholate on BSEP (inhibitor 0.5 µM) was 181.3 pmol/mg protein/min; at BSEP (inhibitor 2.5 µM), 175.6 pmol/mg protein/min; on BSEP (inhibitor 5 µM), 171.3 pmol/mg protein/min; on BSEP (inhibitor 15 µM), 171.9 pmol/mg protein/min; at BSEP (inhibitor 30 µM), 172.3 pmol/mg protein/min. Also, the “alpha (mixed inhibition model)” value on BSEP (mixed inhibition model) is 8.39. Besides, on BSEP, the BSEP inhibition type result is “likely to be a mixed BSEP inhibitor”. This compound also returned an inhibition constant (Ki) at BSEP (setting [1]) of 38.1 µM. Besides, the “inhibition of BSEP-mediated probe substrate transport” value at BSEP is “inhibited”. Also, the inhibition at 70 µM on MRP4 (human, membrane vesicles with MRP4 (vesicular transport assay), 70 µM (solubility limit), read-out: maximum inhibition at the highest concentration tested, MRP4) is < 50%. For the same compound, the “inhibition of MRP4-mediated probe substrate transport” value at MRP4 is listed as “did not inhibit MRP4”.
With `O=C(CN1C(=O)C2(CCCC2)NC[C@H]1c1cc(F)cc(F)c1)Nc1ccc2c(c1)C[C@@]1(C2)C(=O)Nc2ncccc21` [MK-3207], the Vmax of taurocholate at BSEP (inhibitor 0.5 µM) worked out at 171.9 pmol/mg protein/min; on BSEP (inhibitor 2.5 µM), 183.1 pmol/mg protein/min; on BSEP (inhibitor 5 µM), 174.9 pmol/mg protein/min; on BSEP (inhibitor 15 µM) it was 132.5 pmol/mg protein/min; on BSEP (inhibitor 30 µM) it was 151.7 pmol/mg protein/min. On BSEP (competitive inhibition model), this compound returned a Ki of 7.62 µM. For the same compound, the BSEP inhibition type result on BSEP is “competitive model is presumed to be the most likely mode of inhibition”. The “inhibition of BSEP-mediated probe substrate transport” value against BSEP was “inhibited”. The “inhibition of MRP4-mediated probe substrate transport” value against MRP4 is “No inhibition was observed”.
